Data taken from patent publication US8088804B2, “N-hydroxyamide derivatives possessing antibacterial activity” (Pfizer Inc., priority 2005, dated 2012).
Converted amounts (≈) assume the structure as drawn.

Key:
E. coli (2) = assay: Susceptibility testing (MIC, CLSI microdilution); format: cell-based, Escherichia coli; details: 20 h at 35° C., in µg/mL (unit assumed)
Protocol: (§1) Compounds were tested following the microdilution method of CLSI (Clinical and Laboratory Standards Institute. Methods for dilution antimicrobial susceptibility tests for bacteria that grow aerobically; Approved standard—sixth edition. CLSI document M7-A5, CLSI, Wayne, Pa. 2003). Assays were performed in sterile plastic 96-well microtiter trays with round bottom wells (Greiner).
(§2) Stock solutions of test compounds and control antibiotics were prepared at 10 mg/ml in DMSO. Serial 2-fold dilutions of each drug were performed in a microtiter plate across each row using DMSO as solvent at 100-fold the desired final concentration. Wells in columns #1-11 contain drug and column #12 was kept as a growth control for the organism with no drug. Each well in the mother plate was diluted with sterile deionized water and DMSO, mixed, and volumes of 10 μl distributed to each well in the resulting assay plates.
(§3) Stock cultures were prepared using the Microbank™ method (Pro-Lab Diagnostics) and stored at −80° C. To propagate each strain, one bead was removed from the frozen vial and aseptically streaked onto Trypticase Soy Agar (Difco) which were incubated at 35° C. Standardized inocula were prepared using the direct colony suspension method according to CLSI guidelines (Clinical and Laboratory Standards Institute. Methods for dilution antimicrobial susceptibility tests for bacteria that grow aerobically; Approved standard—sixth edition. CLSI document M7-A5, CLSI, Wayne, Pa., 2003). Isolated colonies were selected from an 18-24 hr agar plate and resuspended in 0.9% sterile saline to match a 0.5 McFarland turbidity standard using a calorimeter (Vitek) at 80% of transmitance. The suspension was used within 15 minutes of preparation.
(§4) Mueller-Hinton Broth (MHB) (Difco) was prepared at a 1.1× concentration and supplemented with Ca++ and Mg++ as recommended by CLSI. For each organism, the standardized suspension was diluted 1:180 into appropriate growth medium in a sterile reservoir. After mixing, wells in the drug-containing assay plates were inoculated with a volume of 90 μl. Thus, for each minimum inhibitory concentration (MIC) determination, each well contains a final volume of 100 μl with an inoculum size of approximately 5×10^5 colony forming units (cfu)/ml and no more than 1% DMSO.
(§5) The completed microtiter plates were incubated 20 h at 35° C. in ambient air. Optical density of each well was determined at 600 nm using a VersaMax Microplate reader (Molecular Devices, Sunnyvale, Calif.). The MIC was defined as the lowest drug concentration causing complete suppression of visible bacterial growth.

E. coli tolC = assay: Susceptibility testing (MIC, CLSI microdilution); format: cell-based, Escherichia coli; details: 20 h at 35° C., unit assumed
Protocol: as §1, §2, §3, §4, §5

P. aerug. (2) = assay: Susceptibility testing (MIC, CLSI microdilution); format: cell-based, Pseudomonas aeruginosa; details: 20 h at 35° C., in µg/mL (unit assumed)
Protocol: as §1, §2, §3, §4, §5

P. aerug. Hypersuc = assay: Susceptibility testing (MIC, CLSI microdilution); format: cell-based, Pseudomonas aeruginosa; details: 20 h at 35° C., Δ efflux, hypersusceptible strain, unit assumed
Protocol: as §1, §2, §3, §4, §5

K. pneu. = assay: Susceptibility testing (MIC, CLSI microdilution); format: cell-based, Klebsiella pneumoniae; details: 20 h at 35° C., unit assumed
Protocol: as §1, §2, §3, §4, §5

H. influen. = assay: Susceptibility testing (MIC, CLSI microdilution); format: cell-based, Haemophilus influenzae; details: 20 h at 35° C., unit assumed
Protocol: as §1, §2, §3, §4, §5

P. ae LpxC enzyme = P. ae LpxC enzyme (Pseudomonas aeruginosa, UniProt P47205); assay: Enzyme inhibition testing (fluorescamine assay); format: biochemical
P. ae LpxC enzyme, sequence (P47205 whole entry): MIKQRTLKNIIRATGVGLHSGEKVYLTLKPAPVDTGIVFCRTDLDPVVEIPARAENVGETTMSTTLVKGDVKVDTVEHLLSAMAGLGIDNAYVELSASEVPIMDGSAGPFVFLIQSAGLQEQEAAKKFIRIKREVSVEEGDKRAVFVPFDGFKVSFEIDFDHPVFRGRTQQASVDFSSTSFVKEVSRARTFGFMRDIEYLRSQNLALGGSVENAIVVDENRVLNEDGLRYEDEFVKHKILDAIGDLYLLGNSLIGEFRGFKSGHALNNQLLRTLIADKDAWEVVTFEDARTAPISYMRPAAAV
Protocol: Compounds were tested based on a published method (Wang W., 2001, Anal Biochem, 290, 338-46) with modifications. Enzyme assays were performed in the assay buffer (50 mM HEPES, pH8, 0.005% Brij, 50 μM ZnSO4, 1 mg/ml BSA) in 96-well V-bottom microtiter plates.
Stock solutions of test compounds and control antibiotics are prepared at 10 mg/ml in DMSO and are diluted in the assay buffer to 6-fold the final testing concentration. 5 μl compound dilution is distributed to the well of the assay plate. EDTA is used as positive control and the final concentration in assay is 12.5 mM.
P. ae LpxC enzyme dilution in the assay buffer is added to the compound in plate and pre-incubated with the compound at room temperature for 10 min. LpxC substrate is added to initiate the enzyme reaction and the final enzyme and substrate concentrations are 1.2 μM and 0.4 mM, respectively. The reaction continues at RT for 4 hrs before diluted with 45 μl of Borate buffer (0.4 M, pH9), followed by addition of 40 μl derivatization reagent (fluorescamine 2 mg/ml DMF). This mixture is incubated at RT for 10 min followed by addition of 150 μl DMF/H2O (1:1). The resulting solution is loaded onto Millipore filter unit (Microcon 10 k MWCO) and spun at 13 k rpm on bench top centrifuge for 15 min. 100 μl of this filtrate is transferred to a low fluorescence clear-bottom 96-well plate (Corning) and the fluorescence is detected at ex360 nm and em465 nm on a Tecan fluorescence plate reader. The percent inhibition is calculated based on EDTA produces 100% inhibition and negative control produces 100% activity.

[1] = @0.1 μg/ml, read-out: ENZYME (percent inhibition)

Compound: CCOc1ccc(-c2ccc(C(=O)N3CCS(=O)(=O)[C@H]3C(=O)NO)cc2)cc1 [Compound 33, (S)-3-(4′-Ethoxybiphenylcarbonyl)-N-hydroxythiazolidinesulfone-2-carboxamide]
- MIC E. coli (2) (E. coli (2)): >64
- MIC E. coli tolC (E. coli tolC): ≤ 0.06 mg/L
- MIC P. aerug. (2) (P. aerug. (2)): 4-16
- MIC P. aerug. Hypersuc (P. aerug. Hypersuc): 2 mg/L (≈ 4.95 µM)
- MIC K. pneu. (K. pneu.): 32 mg/L (≈ 79.1 µM)
- MIC H. influen. (H. influen.): 16 mg/L (≈ 39.6 µM)
- inhibition at 0.1 µg/mL (P. ae LpxC enzyme; [1]): 12%

Compound: CCc1ccc(-c2ccc(C(=O)N3CC[C@@H](N)[C@H]3C(=O)NO)cc2)cc1 [Compound 34, (2S,3R)-3-Amino-N-hydroxy-1-(4′-ethylbiphenylcarbonyl)pyrrolidine-2-carboxamide]
- MIC E. coli (2) (E. coli (2)): >64
- MIC E. coli tolC (E. coli tolC): > 64 mg/L
- MIC P. aerug. (2) (P. aerug. (2)): 16-32
- MIC P. aerug. Hypersuc (P. aerug. Hypersuc): 64 mg/L (≈ 181 µM)
- MIC K. pneu. (K. pneu.): > 64 mg/L
- MIC H. influen. (H. influen.): > 64 mg/L
- inhibition at 0.5 µg/mL (P. ae LpxC enzyme; @0.5 μg/ml, read-out: ENZYME (percent inhibition)): 93%

Compound: O=C(NO)[C@H]1N(C(=O)c2ccc(Oc3ccccc3)cc2)CCS1(=O)=O [Compound 35, (S)-N-Hydroxy-3-(4-phenoxybenzoyl)thiazolidinesulfone-2-carboxamide]
- MIC E. coli (2) (E. coli (2)): >64
- MIC E. coli tolC (E. coli tolC): 0.125 mg/L (≈ 0.332 µM)
- MIC P. aerug. (2) (P. aerug. (2)): >64
- MIC P. aerug. Hypersuc (P. aerug. Hypersuc): > 64 mg/L
- MIC K. pneu. (K. pneu.): > 64 mg/L
- MIC H. influen. (H. influen.): > 64 mg/L
- inhibition at 0.1 µg/mL (P. ae LpxC enzyme; [1]): 21%

Compound: O=C(NO)[C@H]1N(C(=O)c2ccc(-c3ccc(F)cc3)cc2)CCS1(=O)=O [Compound 37, (S)-3-(4′-Fluorobiphenylcarbonyl)-N-hydroxythiazolidinesulfone-2-carboxamide]
- MIC E. coli (2) (E. coli (2)): >64
- MIC E. coli tolC (E. coli tolC): ≤ 0.06 mg/L
- MIC P. aerug. (2) (P. aerug. (2)): 4-32
- MIC P. aerug. Hypersuc (P. aerug. Hypersuc): 2 mg/L (≈ 5.29 µM)
- MIC K. pneu. (K. pneu.): > 64 mg/L
- MIC H. influen. (H. influen.): > 64 mg/L
- ENZYME (percent inhibition) (P. ae LpxC enzyme; @0.1 μg/ml): 42%
- inhibition at 0.1 µg/mL (P. ae LpxC enzyme; [1]): 32%

Compound: O=C(NO)[C@H]1N(C(=O)c2ccc(-c3ccc(C(F)(F)F)cc3)cc2)CCS1(=O)=O [Compound 38, (S)-3-(4′-(Trifluoromethyl)biphenylcarbonyl)-N-hydroxythiazolidinesulfone-2-carboxamide]
- MIC E. coli (2) (E. coli (2)): >64
- MIC E. coli tolC (E. coli tolC): ≤ 0.06 mg/L
- MIC P. aerug. (2) (P. aerug. (2)): 32
- MIC P. aerug. Hypersuc (P. aerug. Hypersuc): 8 mg/L (≈ 18.7 µM)
- MIC K. pneu. (K. pneu.): > 64 mg/L
- MIC H. influen. (H. influen.): > 64 mg/L
- inhibition at 0.1 µg/mL (P. ae LpxC enzyme; [1]): 30%

Compound: COc1ccc(C(=O)N2CC[C@@H](O)[C@H]2C(=O)NO)cc1SC(F)(F)F [Compound 40, (2S,3R)-3-Hydroxy-N-hydroxy-1-(4-methoxy-3-trifluoromethylsulfanyl-benzoyl)-pyrrolidine-2-carboxamide]
- MIC E. coli (2) (E. coli (2)): >64
- MIC E. coli tolC (E. coli tolC): 32 mg/L (≈ 84.1 µM)
- MIC P. aerug. (2) (P. aerug. (2)): >64
- MIC P. aerug. Hypersuc (P. aerug. Hypersuc): > 64 mg/L
- MIC K. pneu. (K. pneu.): 64 mg/L (≈ 168 µM)
- MIC H. influen. (H. influen.): > 64 mg/L
- inhibition at 10 µg/mL (P. ae LpxC enzyme; @10 μg/ml, read-out: ENZYME (percent inhibition)): 52%
